Laboratory results taken from PubChem BioAssay AID248 (DTP/NCI, 2004).
“And” between values parts separate entries of the source, which are not always exact repeats. Equal values may be shown once. Toxic doses and inconclusive results are not listed. No stated cut-off is given here; in the data, active means T/C of 150% or more; inactive means T/C below 125%.

Test system: L1210 leukemia ip in BDF1 mice, survival T/C
Experiment: NCI In Vivo Anticancer Drug Screen. Data for tumor model L1210 Leukemia (intraperitoneal) in B6D2F1 (BDF1) mice
Conditions: endpoint: mean survival time, higher = longer survival
Method in brief: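 Antitumor effect is assessed in tumor-bearing animals. Survival in the compound arm is compared with a vehicle-dosed control arm and expressed as their quotient.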

[1] = dose: 100.0 mg/kg/injection, schedule: Q01DX001 (ip), vehicle: carboxymethylcellulose (CMC)
[2] = dose: 100.0 mg/kg/injection, schedule: Q01DX009 (ip), vehicle: Klucel (hydroxypropylcellulose) (HPC)
[3] = dose: 50.0 mg/kg/injection, schedule: Q01DX009 (ip), vehicle: saline with Tween-80
[4] = dose: 100.0 mg/kg/injection, schedule: Q04DX002 (ip), vehicle: saline with Tween-80
[5] = dose: 200.0 mg/kg/injection, schedule: Q04DX002 (ip), vehicle: saline with Tween-80
[6] = dose: 100.0 mg/kg/injection, schedule: Q04DX003 (ip), vehicle: saline
[7] = dose: 200.0 mg/kg/injection, schedule: Q04DX003 (ip), vehicle: saline
[8] = dose: 25.0 mg/kg/injection, schedule: Q01DX009 (ip), vehicle: saline
[9] = dose: 25.0 mg/kg/injection, schedule: Q04DX003 (ip), vehicle: saline
[10] = dose: 50.0 mg/kg/injection, schedule: Q04DX003 (ip), vehicle: saline

Measured: T/C

CCc1cc2c(cc1C(=O)/C=C\C(=O)O)C(C)(C)CCC2(C)C
inactive: dose: 0.5 mg/kg/injection, schedule: Q01DX001 (ip), vehicle: saline 96 % of control | dose: 1.0 mg/kg/injection, schedule: Q01DX001 (ip), vehicle: saline 100 % of control | dose: 2.0 mg/kg/injection, schedule: Q01DX001 (ip), vehicle: saline 98 % of control | dose: 2.97 mg/kg/injection, schedule: Q01DX001 (ip), vehicle: saline 100 % of control | dose: 3.75 mg/kg/injection, schedule: Q01DX009 (ip), vehicle: saline with Tween-80 98 % of control | dose: 3.75 mg/kg/injection, schedule: Q04DX003 (ip), vehicle: acetone 101 % of control | dose: 4.5 mg/kg/injection, schedule: Q01DX001 (ip), vehicle: saline 104 % of control | dose: 6.75 mg/kg/injection, schedule: Q01DX001 (ip), vehicle: saline 104 % of control | dose: 7.5 mg/kg/injection, schedule: Q01DX009 (ip), vehicle: saline with Tween-80 94 % of control | dose: 7.5 mg/kg/injection, schedule: Q04DX003 (ip), vehicle: acetone 108 % of control | dose: 9.9 mg/kg/injection, schedule: Q01DX001 (ip), vehicle: saline 96 % of control | dose: 15.0 mg/kg/injection, schedule: Q01DX001 (ip), vehicle: saline 98 % of control | dose: 15.0 mg/kg/injection, schedule: Q04DX003 (ip), vehicle: acetone 98 % of control

O=C(O)C1Cc2c([nH]c3ccccc23)C(CCCCO)N1 (centres undefined)
inactive: [1] 96 % of control

O=c1[nH]c2ccccc2c(C(Cl)(Cl)Cl)c1Cl
inactive: dose: 12.5 mg/kg/injection, schedule: Q01DX009 (ip), vehicle: Klucel (hydroxypropylcellulose) (HPC) 93 % of control | dose: 25.0 mg/kg/injection, schedule: Q01DX009 (ip), vehicle: Klucel (hydroxypropylcellulose) (HPC) 90 % of control | dose: 50.0 mg/kg/injection, schedule: Q01DX009 (ip), vehicle: Klucel (hydroxypropylcellulose) (HPC) 100 % of control and 108 % of control | [2] 93 % of control

O=C(/C=C/c1ccccc1)Sc1ccccc1
inactive: dose: 100.0 mg/kg/injection, schedule: Q04DX002 (ip), vehicle: Klucel (hydroxypropylcellulose) (HPC) 88 % of control | dose: 200.0 mg/kg/injection, schedule: Q04DX002 (ip), vehicle: Klucel (hydroxypropylcellulose) (HPC) 88 % of control | dose: 400.0 mg/kg/injection, schedule: Q04DX002 (ip), vehicle: Klucel (hydroxypropylcellulose) (HPC) 107 % of control

C=CC12COC(=O)C(=C)C1C1OC(=O)C(=C)C1C(O)C2 (centres undefined)
inactive: dose: 2.5 mg/kg/injection, schedule: Q01DX009 (ip), vehicle: saline + alcohol 102 % of control | dose: 4.0 mg/kg/injection, schedule: Q01DX009 (ip), vehicle: saline 104 % of control | dose: 4.0 mg/kg/injection, schedule: Q01DX009 (ip), vehicle: water 103 % of control | dose: 5.0 mg/kg/injection, schedule: Q01DX009 (ip), vehicle: saline + alcohol 110 % of control | dose: 6.0 mg/kg/injection, schedule: Q01DX009 (ip), vehicle: saline 113 % of control | dose: 8.0 mg/kg/injection, schedule: Q01DX009 (ip), vehicle: saline 124 % of control | dose: 8.0 mg/kg/injection, schedule: Q01DX009 (ip), vehicle: water 118 % of control | dose: 10.0 mg/kg/injection, schedule: Q01DX009 (ip), vehicle: saline 111 % of control

c1ccc(COC2CN3CCC2CC3)cc1 (centres undefined)
inactive: dose: 25.0 mg/kg/injection, schedule: Q04DX003 (ip), vehicle: saline with Tween-80 91 % of control | dose: 50.0 mg/kg/injection, schedule: Q04DX003 (ip), vehicle: saline with Tween-80 95 % of control | dose: 100.0 mg/kg/injection, schedule: Q04DX003 (ip), vehicle: saline with Tween-80 90 % of control and 91 % of control

S=C(NC1CC2C=CC1C2)N1CCCCC1 (centres undefined)
inactive: [3] 106 % of control | dose: 100.0 mg/kg/injection, schedule: Q01DX009 (ip), vehicle: saline with Tween-80 100 % of control | dose: 200.0 mg/kg/injection, schedule: Q01DX009 (ip), vehicle: saline with Tween-80 95 % of control

C#CCN(CCCC)CCCC
inactive: [4] 95 % of control | [5] 100 % of control

O=C(Nc1ccccc1C(=O)N/N=C/c1cccc(O)c1)c1ccccc1
inactive: [2] 103 % of control | dose: 200.0 mg/kg/injection, schedule: Q01DX009 (ip), vehicle: Klucel (hydroxypropylcellulose) (HPC) 89 % of control | dose: 400.0 mg/kg/injection, schedule: Q01DX009 (ip), vehicle: Klucel (hydroxypropylcellulose) (HPC) 97 % of control

O=C(NC(=S)NNC(=S)NNc1ccccc1)c1ccccc1
inactive: dose: 12.5 mg/kg/injection, schedule: Q04DX002 (ip), vehicle: saline with Tween-80 101 % of control | dose: 25.0 mg/kg/injection, schedule: Q01DX009 (ip), vehicle: saline with Tween-80 102 % of control | dose: 25.0 mg/kg/injection, schedule: Q04DX002 (ip), vehicle: saline with Tween-80 107 % of control and 90 % of control | [3] 115 % of control | dose: 50.0 mg/kg/injection, schedule: Q04DX002 (ip), vehicle: saline with Tween-80 108 % of control | [4] 96 % of control and 101 % of control and 110 % of control | [5] 108 % of control

O=C(NC(C(O)CO)C(O)C(O)CO)c1ccccc1 (centres undefined)
inactive: [6] 104 % of control | [7] 105 % of control | dose: 400.0 mg/kg/injection, schedule: Q04DX003 (ip), vehicle: saline 102 % of control

CC(=O)Oc1ccc(C[n+]2ccccc2)cc1
inactive: dose: 12.5 mg/kg/injection, schedule: Q01DX009 (ip), vehicle: saline 94 % of control | [8] 86 % of control | [9] 106 % of control | [10] 100 % of control

O=C(CCCC(=O)NNC(=O)Nc1cccc(S(=O)(=O)F)c1)NNC(=O)Nc1cccc(S(=O)(=O)F)c1
inactive: dose: 50.0 mg/kg/injection, schedule: Q01DX001 (ip), vehicle: saline 106 % of control | dose: 100.0 mg/kg/injection, schedule: Q01DX001 (ip), vehicle: saline 112 % of control | dose: 200.0 mg/kg/injection, schedule: Q01DX001 (ip), vehicle: saline 96 % of control | dose: 400.0 mg/kg/injection, schedule: Q01DX001 (ip), vehicle: saline 112 % of control

O=C(O)CCCCCNC(=O)OCc1ccccc1
inactive: dose: 100.0 mg/kg/injection, schedule: Q01DX009 (ip), vehicle: gum acacia 102 % of control | dose: 100.0 mg/kg/injection, schedule: Q04DX003 (ip), vehicle: gum acacia 91 % of control | dose: 200.0 mg/kg/injection, schedule: Q01DX009 (ip), vehicle: gum acacia 103 % of control | dose: 200.0 mg/kg/injection, schedule: Q04DX003 (ip), vehicle: gum acacia 93 % of control | dose: 400.0 mg/kg/injection, schedule: Q01DX009 (ip), vehicle: gum acacia 86 % of control | dose: 400.0 mg/kg/injection, schedule: Q04DX003 (ip), vehicle: gum acacia 91 % of control

CC(CO)(CO)N=Cc1cccc([N+](=O)[O-])c1
inactive: dose: 50.0 mg/kg/injection, schedule: Q01DX001 (ip), vehicle: carboxymethylcellulose (CMC) 103 % of control | [1] 103 % of control | dose: 200.0 mg/kg/injection, schedule: Q01DX001 (ip), vehicle: carboxymethylcellulose (CMC) 103 % of control | dose: 400.0 mg/kg/injection, schedule: Q01DX001 (ip), vehicle: carboxymethylcellulose (CMC) 97 % of control

CN1CCC23c4c5ccc(O)c4OC2C(=O)CCC3C1C5 (centres undefined)
inactive: dose: 75.0 mg/kg/injection, schedule: Q01DX001 (ip), vehicle: saline 95 % of control

COc1ccc(N=Cc2cc(Br)ccc2O)cc1
inactive: [4] 100 % of control | [5] 104 % of control | dose: 400.0 mg/kg/injection, schedule: Q04DX002 (ip), vehicle: saline with Tween-80 100 % of control

CC1C2CCC(C2)C1N (centres undefined)
inactive: [8] 96 % of control | [9] 94 % of control | dose: 50.0 mg/kg/injection, schedule: Q01DX009 (ip), vehicle: saline 104 % of control | [10] 105 % of control | dose: 100.0 mg/kg/injection, schedule: Q01DX009 (ip), vehicle: saline 98 % of control | [6] 112 % of control and 92 % of control and 93 % of control | [7] 93 % of control
